Measurements taken from PMC9961652 (International Journal of Molecular Sciences, 2023).
Read-outs that look alike come from different tables or passages of the source.

Legend:
[1] = tested on: washed human platelets; assay: Collagen-induced platelet aggregation, light transmission aggregometry (Born method); type: cell-based; details: for activity at 20 µM / IC50: Platelet; for activity at 20 µM: compound 20 µM, means ± SDs of three experiments, 100% = agonist alone; for IC50: Homo sapiens; for activity in collagen-induced platelet aggregation (SAR statement): relative to the quinoline analogs
Protocol: Light transmission aggregometry, i.e., the Born method, was used to determine in vitro antiplatelet aggregation activity using collagen as the agonist for platelet aggregation. Collagen was selected as the agonist, since it is the most thrombogenic component of the subendothelial layer. Collagen also serves as a substrate for platelet adhesion and as an inducer of platelet activation.
All experiments using human blood from healthy volunteers were performed according to the protocols approved by the Institutional Review Board at Cincinnati Children’s Hospital Medical Center, Cincinnati, Ohio. Each volunteer was required to sign an informed consent form approved by the IRB. Procedures for drawing human blood, isolating platelet-rich plasma (PRP), and preparing washed platelet suspensions were the same as those previously reported. […] PRP was obtained by means of the centrifugation of blood at 1400 rpm for 15 min at room temperature. PRP was centrifuged at 4000 rpm for 10 min at room temperature, and the platelet pellet was resuspended in HEPES Tyrode’s solution (pH 7.4) without calcium. Platelets were counted using Hemavet 950FS (Drew Scientific, Oxford, CT, USA), and the count was adjusted to 2.5 × 10^8/mL for aggregation studies.
The in vitro antiplatelet activity of the compounds was assayed on washed human platelets using light transmission aggregometry. Platelet aggregation was performed using a 4-channel Lumi-aggregometer (Chronolog, PA, USA) at 37 °C and stirring speed of 900 rpm. A volume of 250 µL of washed human platelets (2.5 × 10^8/mL) was pre-warmed to 37 °C along with the compounds or DMSO (0.1%) for 2 min before the addition of agonists such as collagen, AA, U46619 (a stable synthetic analog of thromboxane A2), ADP, and thrombin. For ATP secretion, platelets were pre-incubated with a luciferin/luciferase kit (Chrono-lume®) for 30 s at 37 °C before the addition of the agonist. The reactions were allowed to proceed for at least 4 min, and the results of platelet aggregation and ATP secretion were determined using Aggrolink software. Platelet aggregation was expressed as the maximum change in the light transmission, where the 100% value corresponded to treatment with the agonist alone. Compounds were evaluated in triplicate at nine compound concentrations ranging from 50 µM to 1 µM.

[2] = target: T1, RhoA-LARG interaction (Homo sapiens, UniProt P61586); assay: In vitro complex-formation assay of RhoA with LARG DH-PH domain; type: binding; details: 20 µM; pull-down assay conditions, 4 °C, 1 h
T1 construct: 100 ng of purified full-length RhoA
T1 sequence (P61586 whole entry, the tested form may be a part): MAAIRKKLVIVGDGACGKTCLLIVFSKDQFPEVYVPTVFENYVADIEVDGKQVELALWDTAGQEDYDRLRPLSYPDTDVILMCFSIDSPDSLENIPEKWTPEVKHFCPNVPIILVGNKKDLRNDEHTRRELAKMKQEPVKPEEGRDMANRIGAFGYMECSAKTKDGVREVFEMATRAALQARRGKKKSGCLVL
Protocol: (A) A complex-formation assay tested the inhibitory effects of 20 µM UC-177618 and UC-177619 on RhoA interaction with the LARG DH-PH domain. […] After incubating the compound-RhoA-LARG mixture at 4 °C for 1 h, the beads associated with RhoA were detected with anti-RhoA Western blotting. (B,C) Top view of the predicted structural contacts of UC-177618 and UC-177619 in the binding pocket around the Trp58 residue of RhoA.
(A) A complex-formation assay tested the inhibitory effects of R-G04 and S-G04 on RhoA interaction with the LARG DH-PH domain. MBP-(His)6-tagged LARG (100 ng) was immobilized on Amylose beads. Binding buffer containing full-length RhoA (100 ng) was pre-incubated with different concentrations of R-G04 (25 µM or 50 µM), and S-G04 (5 µM or 10 µM) was added to the beads. After incubating the compound-RhoA-LARG mixture at 4 °C for 1 h, the beads associated with RhoA were detected with anti-RhoA Western blotting. (B) Top view of the predicted structural contacts of R-G04 and S-G04 in the binding pocket around the Trp58 residue of RhoA.
In total, 100 ng of purified MBP (Maltose-binding protein)-(His)6-tagged LARG DH-PH was immobilized on 20 µL of suspended amylose beads (No. E8021S; New England Biolabs Inc., Ipswich, MA, USA) by incubating them in an orbital shaker at 4 °C for 30 min in binding buffer (20 mM Tris·HCl (pH 7.6), 100 mM NaCl, 0.01% Triton X-100, 5mM EDTA, and 5 mM MgCl2). The compounds were added to the binding buffer containing 100 ng of purified full-length RhoA and pre-incubated at 4 °C for 30 min under constant agitation. The Amylose beads bound to LARG were washed thrice with binding buffer to get rid of unbound LARG, and the pre-incubated compound-RhoA mixture was added to the beads. This LARG-compound-RhoA mixture was incubated in the orbital shaker at 4 °C for 1 h. The beads were washed three times, and the amount of RhoA protein co-precipitated with the MBP-fusion-bound beads was detected with anti-RhoA Western blotting.

[3] = tested on: RhoA; assay: RhoA-GTP formation, GST-Rhotekin effector pull-down assay in collagen-stimulated platelets; type: cell-based, human; details: 20 µM, 2 min pre-incubation; collagen 1 µg/mL for 4 min
Protocol: Next, the ability of the six compounds to suppress RhoA activity in platelets was assessed by subjecting them to a GST (Glutathione-S-transferase)-Rhotekin effector pull-down assay. The compounds were incubated with washed human platelets for 2 min before being stimulated with 1 µg/mL collagen. The analogs inhibited the activation of RhoA at the 20 µM concentration (Figure 2A,B). […] After confirming that these analogs could prevent RhoA activation and the phosphorylation of the MLC, their ability to disrupt complex-formation between RhoA and LARG was tested. […] These findings indicate that the active analogs inhibit RhoA activation by disrupting the binding between RhoA and its GEF.
(A,B) Washed human platelets were incubated with collagen (1 µg/mL) for 4 min, and the levels of RhoA-GTP formation were quantified with a GST-Rhotekin effector pull-down assay. The platelets were pre-incubated with 20 µM UC-177618, UC-177619, UC-177628, UC-177629, […], or […] for 2 min before being stimulated with collagen. The addition of ice-cold lysis buffer terminated the reaction. […] Relative amounts of the GTP-bound form of RhoA were quantified with densitometry measurements of total RhoA (T-RhoA) and normalized to untreated platelets. (C,D) The addition of 20 µM of active Rhosin-related compounds to washed human platelets 2 min before stimulation with collagen blocked the phosphorylation of the myosin light chain (p-MLC). The reactions were terminated after 4 min by adding 4x Laemmli sample buffer. The samples were processed for Western blotting and probed for MLC and p-MLC, and phosphorylation was quantified by measuring the densitometry of total MLC (T-MLC). The differences between DMSO- and Rhosin-related compounds were analyzed with t-test, and the results are shown as means ± SDs of three independent experiments. (* p < 0.05, ** p < 0.01, *** p < 0.001, and **** p < 0.0001).
The relative levels of RhoA-GTP in washed human platelets were quantified with effector domains GST-Rhotekin pull-down assays as previously reported. A volume of 250 µL of washed human platelets (2.5 × 10^8/mL) was pre-warmed to 37 °C along with the compounds or DMSO (0.1%) for 2 min before being stimulated with collagen (1 µg/mL). The reactions were terminated 4 min after collagen stimulation by adding ice-cold lysis buffer (20 mM Tris·HCl (pH 7.6), 100 mM NaCl, 1% Triton X-100, 0.2% Sodium Deoxycholate, 10 mM MgCl2, 1 mM dithiothreitol, 1x protease inhibitor cocktail, and 1x phosphatase inhibitor cocktail). The supernatants were collected and subjected to the GST-Rhotekin pull-down assay. The total cell lysates were also blotted in parallel. GTP-bound RhoA was quantitatively detected with Western blotting using an anti-RhoA antibody. The relative amounts of RhoA were quantified with densitometry measurements and normalized to the untreated platelets.

[4] = washed human platelets, read-out: % Platelet Aggregation, Collagen (1 µg/mL)
[5] = washed human platelets, read-out: % Platelet Aggregation, Collagen (5 µg/mL)
[6] = collagen 1 µg/mL, washed human platelets, dose-response curves, read-out: IC50 (95% CI) of platelet aggregation
[7] = collagen-induced platelet aggregation, compounds without IC50 determination estimated from percent inhibition at 20 µM, read-out: IC50 (SAR table)

Row | SMILES | activity at 20 µM [1, 4] | activity at 20 µM [1, 5] | IC50 [1, 6] | IC50 [1, 7] | LARG binding to RhoA [2] | RhoA-GTP formation [3] | activity in collagen-induced platelet aggregation (SAR statement) [1]
1 | CSCCNc1nc(SCCC(F)(F)F)nc2c1ncn2[C@@H]1O[C@H](COP(=O)(O)OP(=O)(O)C(Cl)(Cl)P(=O)(O)O)[C@@H](O)[C@H]1O [Cangrelor, reference compound] | 27.7 ± 2.52% | 63.3 ± 4.16% | – | – | – | – | –
2 | CN(Nc1ccnc2cc(C(F)(F)F)ccc12)C(N)=S [UC177623] | 84.3 ± 9% | 90.7 ± 6.2% | – | – | – | – | –
3 | O=C1OCCN1Nc1ccnc2ccccc12 [UC-177613] | 84.3 ± 15.5% | 95.2 ± 4.9% | – | – | – | – | –
4 | O=C1OCCN1Nc1ccnc2cc(C(F)(F)F)ccc12 [UC-177614] | 87.3 ± 9.6% | 90 ± 3.1% | – | – | – | – | –
5 | S=C(NNc1ccnc2ccccc12)Nc1ccccc1 [UC-177615] | 9.7 ± 6% | 11.4 ± 9.9% | 5.47 µM | – | – | – | –
6 | O=C(NNc1ccnc2ccccc12)Nc1ccccc1 [UC-177616] | 11.7 ± 2.3% | 10.6 ± 3.6% | 4.9 µM | – | – | – | –
7 | O=C(NNc1ccnc2ccccc12)c1ccc(Cl)c(Cl)c1 [UC-177617] | 13 ± 10.4% | 26.8 ± 9% | – | 5.64 µM | – | – | –
8 | O=C(NNc1ccnc2ccccc12)c1cc2ccccc2[nH]1 [UC-177626] | 86 ± 14.4% | 87.6 ± 19.4% | – | > 20 µM | showed no effects | – | –
9 | O=C(NNc1ccnc2cc(C(F)(F)F)ccc12)c1cc2ccccc2[nH]1 [UC-177627] | 17.7 ± 11.4% | 19 ± 17.7% | 2.22 µM | 2.23 µM | – | – | –
10 | O=C(NNc1ccnc2c(C(F)(F)F)cccc12)c1cc2ccccc2[nH]1 [UC-177628] | 8.7 ± 4.7% | 12.3 ± 9% | – | 2.84 µM | – | inhibited RhoA-GTP formation | –
11 | O=C(NNc1ccnc2cc(Cl)ccc12)c1cc2ccccc2[nH]1 [UC-177629] | 7.3 ± 5.9% | 10.8 ± 3% | – | 2.39 µM | – | inhibited RhoA-GTP formation | –
12 | Cc1cc(NNC(=O)c2cc3ccccc3[nH]2)nc2ccccc12 [UC-177630] | 73 ± 21.6% | 85 ± 15.3% | – | > 20 µM | – | – | lost all activity
13 | Cc1ccc(C(=O)NNc2ccnc3ccccc23)cc1 [UC-177631] | 87.7 ± 13.1% | 90.4 ± 3.7% | – | > 20 µM | – | – | –
14 | Cc1ccc(C(=O)NNc2ccnc3cc(C(F)(F)F)ccc23)cc1 [UC-177632] | 86.7 ± 11% | 93.1 ± 12.8% | – | > 20 µM | – | – | –
15 | Cc1ccc(C(=O)NNc2ccnc3c(C(F)(F)F)cccc23)cc1 [UC-177633] | 3.3 ± 3.2% | 10.1 ± 8.3% | 2.38 µM | 2.34 µM | – | inhibited RhoA-GTP formation | –
16 | Cc1ccc(C(=O)NNc2ccnc3cc(Cl)ccc23)cc1 [UC-177634] | 17 ± 2.6% | 24.5 ± 3.9% | – | 4.59 µM | – | – | –
17 | Cc1ccc(C(=O)NNc2cc(C)c3ccccc3n2)cc1 [UC-177635] | 79.1 ± 7% | 90.1 ± 8.3% | – | > 20 µM | – | – | –
18 | O=C1OCCN1NC1CCOc2ccc(-n3cc[nH]c3=S)cc21 (stereo not drawn) [UC-177639] | 80 ± 17.3% | 90.4 ± 9.1% | – | – | – | – | –
19 | O=C(NNC1CCc2ccccc21)c1cc2ccccc2[nH]1 (stereo not drawn) [UC-178838] | 7.3 ± 5.8% | 13.7 ± 7.9% | – | 3.55 µM | – | – | nearly equipotent
20 | Cc1[nH]c2ccccc2c1/C=N/NC(=O)c1cccnc1 [UC-390484] | 81 ± 14% | 88.1 ± 10% | – | – | – | – | –
21 | COc1ccc2cc(/C=N/NC(=O)Cc3c[nH]c4ccccc34)ccc2c1 [UC-391695] | 79 ± 8% | 84.8 ± 12.1% | – | – | – | – | –
22 | COc1cc(/C=N/NC(=O)C2COc3ccccc3O2)ccc1O (stereo not drawn) [UC-392453] | 90.7 ± 8.5% | 94.7 ± 11.2% | – | – | – | – | –
23 | O=S(=O)(Nc1cc(C(F)(F)F)ccc1Cl)c1cccc2cccnc12 [UC-406794] | 12.7 ± 7.2% | 25 ± 5.2% | 5.2 µM | – | – | – | –
24 | Cc1ccc(C)c(OCC(=O)N/N=C/c2cn(Cc3ccccc3)c3ccccc23)c1C [UC-436352] | 84.7 ± 15.5% | 89 ± 2.5% | – | – | – | – | –
25 | O=C(N/N=C/c1ccc(O)cc1)c1cc2ccccc2[nH]1 [UC-612333] | 70 ± 5.6% | 78.6 ± 14.9% | – | – | – | – | –
26 | CN(Cc1ccccc1)C(=O)C(N)Cc1c[nH]c2ccccc12 (stereo not drawn) [UC-651009] | 86 ± 1.7% | 89.2 ± 10.6% | – | – | – | – | –
27 | N[C@@H](Cc1c[nH]c2ccccc12)C(=O)Nc1ccc2oc(C(=O)O)cc2c1 [UC-830013] | 93 ± 10.8% | 91.3 ± 14.7% | – | – | – | – | –
28 | S=C(NNc1ccnc2cc(Cl)ccc12)Nc1ccccc1Cl [UC-936377] | 61.3 ± 4.5% | 71.7 ± 5.3% | – | – | – | – | –
29 | Cc1[nH]c2ccccc2c1CCNC(=O)c1ccc2nccnc2c1 [UC-984842] | 91.3 ± 10.5% | 95.9 ± 6.2% | – | – | – | – | –
